ChEMBL document CHEMBL5108002, “Design, synthesis, and biological evaluation of novel 7-substituted 10,11-methylenedioxy-camptothecin derivatives against drug-resistant small-cell lung cancer in vitro and in vivo” (Eur J Med Chem, 2022)
Active and inactive are the calls of the source. No cut-off for these calls is given here.

How the values were obtained:
NCI-H446 [1] = test: Induction of apoptosis in human NCI-H446 cells assessed as increase in cleaved-caspase 3 protein expression at 0.1 to 100 nM measured after 24 to 48 hrs by Western blot analysis; type: functional, cell-based; conditions: dose 0.1-100 nM, time 24-48 hrs
NCI-H446 [2] = test: Induction of apoptosis in human NCI-H446 cells assessed as inhibition of Bcl-1 protein expression at 0.1 to 100 nM incubated for 24 hrs by Western blot analysis; type: functional, cell-based; conditions: dose 0.1-100 nM
H69AR [3] = test: Induction of apoptosis in human NCI-H69AR cells assessed as inhibition of Mcl-1 protein expression at 0.1 to 100 nM incubated for 24 hrs by Western blot analysis; type: functional, cell-based; conditions: dose 0.1-100 nM
H69AR [4] = test: Induction of apoptosis in human NCI-H69AR cells assessed as dead cells at 1 nM incubated for 24 hrs by AnnexinV-FITC/PI staining based flow cytometry analysis (reference value: 1.92 %); type: functional
H69AR [5] = test: Induction of apoptosis in human NCI-H69AR cells assessed as inhibition of Bcl-2 protein expression at 0.1 to 100 nM incubated for 24 hrs by Western blot analysis; type: functional, cell-based; conditions: dose 0.1-100 nM
NCI-H446 [6] = test: Induction of apoptosis in human NCI-H446 cells assessed as early apoptotic cells at 1 nM incubated for 24 hrs by AnnexinV-FITC/PI staining based flow cytometry analysis (reference value: 3.1 %); type: functional
Mus musculus = test: Downregulation of survivin protein expression in tumor of BALB/c mouse xenografted with human NCI-H446 cells at 0.75 mg/kg, IG administered intragastrically once a week for 28 days by western blot analysis; type: functional, organism-based; conditions: time 28.0 day
NCI-H69 [7] = test: Induction of apoptosis in human NCI-H69 cells assessed as inhibition of Bcl-2 protein expression at 0.1 to 100 nM incubated for 24 hrs by Western blot analysis; type: functional, cell-based; conditions: dose 0.1-100 nM
H69AR [8] = test: Induction of apoptosis in human NCI-H69AR cells assessed as dead cells at 10 nM incubated for 24 hrs by AnnexinV-FITC/PI staining based flow cytometry analysis (reference value: 1.92 %); type: functional
H69AR [9] = test: Induction of apoptosis in human NCI-H69AR cells assessed as late apoptotic cells at 100 nM incubated for 24 hrs by AnnexinV-FITC/PI staining based flow cytometry analysis (reference value: 2.99 %); type: functional
NCI-H446 [10] = test: Antiproliferative activity against etoposide/cisplatin combination-resistant human NCI-H446 cells assessed as inhibition of cell growth incubated for 72 hrs by SRB assay; type: functional, cell-based; conditions: NCI-H446, 72 h
H69AR [11] = test: Induction of apoptosis in human NCI-H69AR cells assessed as inhibition of survivin protein expression at 0.1 to 100 nM incubated for 24 hrs by Western blot analysis; type: functional, cell-based; conditions: dose 0.1-100 nM
H69AR [12] = test: Induction of apoptosis in human NCI-H69AR cells assessed as late apoptotic cells at 10 nM incubated for 24 hrs by AnnexinV-FITC/PI staining based flow cytometry analysis (reference value: 2.99 %); type: functional
NCI-H446 [13] = test: Induction of apoptosis in human NCI-H446 cells assessed as inhibition of Bcl-2 protein expression incubated for 24 hrs by Western blot analysis; type: functional, cell-based; conditions: dose 0.1-100 nM
NCI-H446 [14] = test: Antitumor activity against Irinotecan-resistant human NCI-H446 cells xenografted in BALB/c nude mouse assessed as tumor weight at 3 mg/kg, IG administered once a week and measured 3 times a week for 35 days; type: functional; conditions: time 35 day
H69AR [15] = test: Induction of apoptosis in human NCI-H69AR cells assessed as increase in cleaved-PARP protein expression at 0.1 to 100 nM measured after 24 hrs by Western blot analysis; type: functional, cell-based; conditions: dose 0.1-100 nM
[16] = Toxicity in BALB/c nude mouse xenografted with Irinotecan-resistant human NCI-H446 cells assessed as reduction in body weight at 3 mg/kg, IG administered once a week and measured 3 times a week for 35 days; type: organism-based; conditions: in vivo, po, 840 h, time 35 day
NCI-H446 [17] = test: Induction of apoptosis in human NCI-H446 cells assessed as dead cells at 1 nM incubated for 24 hrs by AnnexinV-FITC/PI staining based flow cytometry analysis (reference value: 0.22 %); type: functional
NCI-H446 [18] = test: Induction of apoptosis in human NCI-H446 cells assessed as downregulation of survivin protein expression at 0.1 to 100 nM measured for 48 hrs by Western blot analysis; type: functional, cell-based; conditions: dose 0.1-100 nM
H69AR [19] = test: Induction of apoptosis in human NCI-H69AR cells assessed as dead cells at 100 nM incubated for 24 hrs by AnnexinV-FITC/PI staining based flow cytometry analysis (reference value: 1.92 %); type: functional
NCI-H446 [20] = test: Induction of apoptosis in human NCI-H446 cells assessed as reduction in survivin mRNA level at 0.1 to 100 nM incubated for 24 hrs by RT-PCR analysis; type: functional, cell-based; conditions: dose 0.1-100 nM
NCI-H446 [21] = test: Antitumor activity against etoposide/cisplatin combination-resistant human NCI-H446 cells xenografted in BALB/c nude mouse assessed as tumor growth inhibition at 3 mg/kg, IG administered once a week and measured 3 times a week relative to control; type: functional; conditions: NCI-H446, po, read-out: TGI
NCI-H69 [22] = test: Induction of apoptosis in human NCI-H69 cells assessed as reduction in Bcl-2 mRNA expression at 0.1 to 100 nM incubated for 24 hrs by RT-PCR analysis; type: functional, cell-based; conditions: dose 0.1-100 nM
2008 = test: Antiproliferative activity against human 2008 cells assessed as inhibition of cell growth incubated for 72 hrs by SRB assay; type: functional, cell-based; conditions: Homo sapiens, 2008, 72 h
NCI-H69 [23] = test: Induction of apoptosis in human NCI-H69 cells assessed as inhibition of XIAP protein expression at 0.1 to 100 nM incubated for 24 hrs by Western blot analysis; type: functional, cell-based; conditions: dose 0.1-100 nM
NCI-H446 [24] = test: Induction of apoptosis in human NCI-H446 cells assessed as dead cells at 10 nM incubated for 24 hrs by AnnexinV-FITC/PI staining based flow cytometry analysis (reference value: 0.22 %); type: functional
[25] = Resistance index, ratio of IC50 for antiproliferative activity against Irinotecan-resistant human NCI-H446 cells to IC50 for antiproliferative activity against human NCI-H446 cells; type: functional
H69AR [26] = test: Induction of apoptosis in human NCI-H69AR cells assessed as reduction in Mcl-1 mRNA expression at 0.1 to 100 nM incubated for 24 hrs by RT-PCR analysis; type: functional, cell-based; conditions: dose 0.1-100 nM
NCI-H446 [27] = test: Induction of apoptosis in human NCI-H446 cells assessed as inhibition of Mcl-1 protein expression incubated for 24 hrs by Western blot analysis; type: functional, cell-based; conditions: dose 0.1-100 nM
NCI-H446 [28] = test: Induction of apoptosis in human NCI-H446 cells assessed as increase in cleaved-PARP protein expression at 0.1 to 100 nM measured after 24 to 48 hrs by Western blot analysis; type: functional, cell-based; conditions: dose 0.1-100 nM, time 24-48 hrs
NCI-H69 [29] = test: Induction of apoptosis in human NCI-H69 cells assessed as reduction in Mcl-1 mRNA expression at 0.1 to 100 nM incubated for 24 hrs by RT-PCR analysis; type: functional, cell-based; conditions: dose 0.1-100 nM
NCI-H446 [30] = test: Antitumor activity against human NCI-H446 cells xenografted in BALB/c nude mouse assessed as tumor growth inhibition at 3 mg/kg, IG administered once a week for 28 days by electronic caliper method relative to control; type: functional; conditions: NCI-H446, po, 672 h, time 28 day, read-out: TGI

Question: Which Activity (NCI-H446 [1]) does the source give for `CC[C@@]1(O)C(=O)OCc2c1cc1n(c2=O)Cc2c-1nc1cc3c(cc1c2-c1ccoc1)OCO3` here?
Answer: The Activity was “Active”.

Question: And the inhibition (NCI-H446 [2])?
Answer: The inhibition was “Active”.

Question: What about the inhibition (H69AR [3]) of the same compound?
Answer: The inhibition was “Active”.

Question: What about the Activity (H69AR [4]) of the same compound?
Answer: The Activity was 2.61%.

Question: And the inhibition (H69AR [5])?
Answer: Its inhibition is “Active”.

Question: And the Activity (NCI-H446 [6])?
Answer: Its Activity is 13.08%.

Question: What about the Activity (Mus musculus) of the same compound?
Answer: The Activity was “Active”.

Question: And the inhibition (NCI-H69 [7])?
Answer: Its inhibition is “Active”.

Question: What about the Activity (H69AR [8]) of the same compound?
Answer: The Activity was 1.82%.

Question: What about the Activity (H69AR [9]) of the same compound?
Answer: Its Activity is 32.38%.

Question: What about the IC50 (NCI-H446 [10]) of the same compound?
Answer: Its IC50 is 0.49 nM.

Question: What about the inhibition (H69AR [11]) of the same compound?
Answer: Its inhibition is “Active”.

Question: And the Activity (H69AR [12])?
Answer: Its Activity is 12.48%.

Question: And the inhibition (NCI-H446 [13])?
Answer: Its inhibition is “Active”.

Question: And the Activity (NCI-H446 [14])?
Answer: The Activity was 0.15 g.

Question: What about the Activity (H69AR [15]) of the same compound?
Answer: The Activity was “Active”.

Question: And the Activity [16]?
Answer: Its Activity is “Non-Toxic”.

Question: And the Activity (NCI-H446 [17])?
Answer: Its Activity is 3.79%.

Question: What about the Activity (NCI-H446 [18]) of the same compound?
Answer: Its Activity is “Active”.

Question: What about the Activity (H69AR [19]) of the same compound?
Answer: Its Activity is 1.47%.

Question: What about the Activity (NCI-H446 [20]) of the same compound?
Answer: Its Activity is “Active”.

Question: And the inhibition in vivo at 3 mg/kg (NCI-H446 [21])?
Answer: Its inhibition in vivo at 3 mg/kg is 84.5%.

Question: What about the Activity (NCI-H69 [22]) of the same compound?
Answer: The Activity was “Active”.

Question: And the IC50 2008?
Answer: The IC50 was 10.2 nM.

Question: What about the inhibition (NCI-H69 [23]) of the same compound?
Answer: Its inhibition is “Active”.

Question: And the Activity (NCI-H446 [24])?
Answer: The Activity was 2.78%.

Question: What about the “Ratio IC50” value [25] of the same compound?
Answer: The value was 0.64.

Question: And the Activity (H69AR [26])?
Answer: The Activity was “Active”.

Question: And the inhibition (NCI-H446 [27])?
Answer: Its inhibition is “Active”.

Question: What about the Activity (NCI-H446 [28]) of the same compound?
Answer: Its Activity is “Active”.

Question: And the Activity (NCI-H69 [29])?
Answer: The Activity was “Active”.

Question: What about the inhibition in vivo at 3 mg/kg (NCI-H446 [30]) of the same compound?
Answer: The inhibition in vivo at 3 mg/kg was 95.5%.
